What is called Ki is a measure of affinity in units of concentration, obtained from inhibition or displacement.

These results are taken from patent publication US20050209278A1, “Piperidinyl- and piperazinyl-sulfonylmethyl hydroxamic acids and their use as protease inhibitors” (priority 2002, published 2005).

One assay has as its target T1, MMP-9 (Homo sapiens, UniProt P14780).
T1 construct: made in house; host or cells: MMP-9-transfected HT1080 cells (spent media)
The assay can be described thus: In vitro MMP inhibition, Ki determination (fluorogenic substrate II). Format: biochemical. An outline of the steps:
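HT1080-derived MMP-9, activated with APMA, trypsin or MMP-3, incubated 1 hr at room temperature with inhibitor and 4 μM fluorogenic substrate II (at or below Km) in pH 7.5 Tris/NaCl/CaCl2 buffer; ex 330/em 420 nm. Ki from Morrison-equation regression, without substrate correction.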

A further assay deals with T2, MMP-13 (Homo sapiens, UniProt P45452).
T2 construct: made in house; host or cells: baculovirus / insect cells
The assay is described as above. The note with it: read-out: MMP-13 Ki. Format: biochemical. Put shortly: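 Room-temperature, 1 h incubation of APMA-activated recombinant human MMP-13 with 4 μM quenched substrate II (cleaved at Gly-Leu) in pH 7.5 Tris/NaCl/CaCl2 buffer. Inhibition appears as a slowed rise in 330/420 nm fluorescence. Single low enzyme and substrate levels were used for Ki.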

Where two headings read alike, the source gives them in different places.

T1 sequence (P14780 107-707 limits assumed): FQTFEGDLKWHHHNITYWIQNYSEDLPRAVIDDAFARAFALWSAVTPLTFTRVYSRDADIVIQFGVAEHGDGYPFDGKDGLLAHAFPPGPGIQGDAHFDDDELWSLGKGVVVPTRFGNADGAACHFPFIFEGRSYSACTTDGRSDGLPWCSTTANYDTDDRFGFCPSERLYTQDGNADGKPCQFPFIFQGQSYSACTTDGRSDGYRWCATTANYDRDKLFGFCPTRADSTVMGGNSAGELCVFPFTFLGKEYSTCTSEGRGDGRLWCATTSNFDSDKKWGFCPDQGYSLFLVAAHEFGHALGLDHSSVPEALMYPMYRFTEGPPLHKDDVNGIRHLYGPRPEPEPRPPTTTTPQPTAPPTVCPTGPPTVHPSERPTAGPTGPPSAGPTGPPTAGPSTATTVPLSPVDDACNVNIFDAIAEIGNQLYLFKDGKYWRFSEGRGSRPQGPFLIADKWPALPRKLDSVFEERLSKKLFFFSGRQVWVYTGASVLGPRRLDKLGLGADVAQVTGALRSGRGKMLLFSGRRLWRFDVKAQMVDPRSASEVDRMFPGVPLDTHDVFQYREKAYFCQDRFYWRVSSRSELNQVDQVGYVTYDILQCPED

Consider `O=C(NO)C1(S(=O)(=O)N2CCN(c3ncc(-c4ccc(Cl)cc4)cn3)CC2)CCOCC1` [Example 66], for which the results for the Ki at MMP-9 (value not in parenthesis) and on MMP-13 (value not in parenthesis) were 0.52 nM and 0.25 nM, respectively.
In the same order, the values of `CCCCc1cnc(N2CCN(S(=O)(=O)C3(C(=O)NO)CCOCC3)CC2)nc1` [Example 105] are 0.74 nM and 1.88 nM.
`CCCCc1ccc(N2CCN(S(=O)(=O)C3(C(=O)NO)CCOCC3)CC2)nc1` [Example 168]: the values for the Ki at MMP-9 (value not in parenthesis) and on MMP-13 (value not in parenthesis) were 0.16 nM and 0.21 nM, respectively.
As to `CCc1ccc(-c2ccc(C3CCN(S(=O)(=O)C4(C(=O)NO)CCOCC4)CC3)nc2)cc1` [Example 393], the Ki at MMP-9 (value outside parentheses) was found to be 4.86 nM; on MMP-13 (value outside parentheses), 1.09 nM.
Turning to `CCCCc1ccc(C2CCN(S(=O)(=O)C3(C(=O)NO)CCN(CCOC)CC3)CC2)nc1` [Example 397], the Ki on MMP-9 (value outside parentheses) is 0.09 nM; on MMP-13 (value outside parentheses) it was 0.54 nM.
On to `O=C(NO)C1(S(=O)(=O)N2CCC(c3ccc(OCc4ccccc4)cn3)CC2)CCOCC1` [Example 398], for which the Ki at MMP-9 (value outside parentheses) was 5.67 nM; at MMP-13 (value outside parentheses), 0.15 nM.
In the same order, the values of `N#Cc1ccc(-c2cnc(N3CCN(S(=O)(=O)C4(C(=O)NO)CCOCC4)CC3)s2)cc1` [Example 399] are 0.57 nM and 0.04 nM.
In the same order, the values of `CCCC#Cc1cnc(N2CCN(S(=O)(=O)C3(C(=O)NO)CCOCC3)CC2)s1` [Example 400] are 1.4 nM and 0.28 nM.
Turning to `CCCCCC/C=C\C1CCN(S(=O)(=O)C2(C(=O)NO)CCOCC2)CC1` [Example 401], the figures for the Ki on MMP-9 (value outside parentheses) and on MMP-13 (value outside parentheses) were 4.22 nM and 9.05 nM, respectively.
Take `CCCCCC/C=C/C1CCN(S(=O)(=O)C2(C(=O)NO)CCOCC2)CC1` [Example 402]: the Ki on MMP-9 (value outside parentheses) is 0.19 nM; on MMP-13 (value outside parentheses), 0.58 nM.
For `O=C(NO)C1(S(=O)(=O)N2CCC(COCc3ccc(C(F)(F)F)cc3)CC2)CCOCC1` [Example 403], the figures for the Ki at MMP-9 (value outside parentheses) and at MMP-13 (value outside parentheses) were 7.37 nM and 2.47 nM, respectively.
For the compound `O=C(NO)C1(S(=O)(=O)N2CCC(COCc3ccc(OC(F)(F)F)cc3)CC2)CCOCC1` [Example 404], the Ki on MMP-9 (value outside parentheses) is 2.29 nM; at MMP-13 (value outside parentheses) it was 0.33 nM.
As to `O=C(NO)C1(S(=O)(=O)N2CCC(COCc3ccc(SC(F)(F)F)cc3)CC2)CCOCC1` [Example 405], the Ki on MMP-9 (value outside parentheses) stood at 3.39 nM; on MMP-13 (value outside parentheses) it was 0.18 nM.
In the same order, the values of `CCCCCCCOC1CCN(S(=O)(=O)C2(C(=O)NO)CCOCC2)CC1` [Example 406] are 0.76 nM and 1.28 nM.
The matching figures for `O=C(NO)C1(S(=O)(=O)N2CCC(c3ccc(-c4cccs4)c(F)c3)CC2)CCOCC1` [Example 407]: 1.9 nM and 0.78 nM.
Consider `O=C(NO)C1(S(=O)(=O)N2CCC(c3ccc(N4CCCC4)cn3)CC2)CCOCC1` [Example 408], for which the Ki at MMP-9 (value outside parentheses) came to 10.2 nM; at MMP-13 (value outside parentheses) it was 11 nM.
With `O=C(NO)C1(S(=O)(=O)N2CCC(c3ccc(-c4ccccn4)cn3)CC2)CCOCC1` [Example 409], the values for the Ki at MMP-9 (value outside parentheses) and at MMP-13 (value outside parentheses) were 13.6 nM and 22.3 nM, respectively.
`CCCCOc1ccc(C2CCN(S(=O)(=O)C3(C(=O)NO)CCOCC3)CC2)nc1` [Example 410]: the results for the Ki at MMP-9 (value outside parentheses) and at MMP-13 (value outside parentheses) were 0.55 nM and 0.2 nM, respectively.
Consider `CCC(F)(F)CCc1ccc(C2CCN(S(=O)(=O)C3(C(=O)NO)CCOCC3)CC2)cn1` [Example 411], for which the Ki at MMP-9 (value outside parentheses) stood at 2.04 nM; at MMP-13 (value outside parentheses), 7.75 nM.
The matching figures for `Cc1ccc(-c2csc(N3CCN(S(=O)(=O)C4(C(=O)NO)CCOCC4)CC3)n2)cc1` [Example 412]: above 10000 nM and above 10000 nM.
In the case of `Cc1cccc(-c2csc(N3CCN(S(=O)(=O)C4(C(=O)NO)CCOCC4)CC3)n2)c1` [Example 413], the Ki at MMP-9 (value outside parentheses) was above 10000 nM; on MMP-13 (value outside parentheses) it was 4830 nM.
In the case of `O=C(NO)C1(S(=O)(=O)N2CCN(c3nc(-c4ccccc4)cs3)CC2)CCOCC1` [Example 415], the inhibition constant (Ki) at MMP-9 (value outside parentheses) is above 10000 nM; on MMP-13 (value outside parentheses), 2420 nM.
With `Cc1ccc(-c2ccc(C3CCN(S(=O)(=O)C4(C(=O)NO)CCOCC4)CC3)nc2)s1` [Example 416], the Ki at MMP-9 (value outside parentheses) was 1.49 nM; at MMP-13 (value outside parentheses), 1.35 nM.
In the same order, the values of `O=C(NO)C1(S(=O)(=O)N2CCC(c3ccc(-c4cccc(F)c4)cn3)CC2)CCOCC1` [Example 417] are 4.1 nM and 3.84 nM.
As to `O=C(NO)C1(S(=O)(=O)N2CCC(c3ccc(OCCC(F)(F)F)cn3)CC2)CCOCC1` [Example 418], the Ki was determined as 1.86 nM at MMP-9 (value outside parentheses) and 0.46 nM on MMP-13 (value outside parentheses).
The matching figures for `O=C(NO)C1(S(=O)(=O)N2CCN(c3ccc(-c4nn[nH]n4)cc3)CC2)CCOCC1` [Example 419]: 112 nM and 34 nM.
The matching figures for `CCCCc1ccc(C2(O)CCN(S(=O)(=O)C3(C(=O)NO)CCOCC3)CC2)nc1` [Example 420]: 80.3 nM and 175 nM.
